Like-named read-outs stand apart in the source and are kept apart here.
Legend:
mouse RORγ = target: T1, mouse RORγ (Mus musculus, UniProt P51450); test: Luciferase reporter gene assay of inhibitory effect against RORγ transcriptional activity (GAL4-mRORγ plasmid in CHO cells); format: cell-based
T1 construct: mouse, NM_011281.2 and from Ile251 to Lys516; expressed in transfected cells; host or cells: CHO cells (transient co-transfection with pG5-Luc reporter)
T1 sequence (P51450 251-516): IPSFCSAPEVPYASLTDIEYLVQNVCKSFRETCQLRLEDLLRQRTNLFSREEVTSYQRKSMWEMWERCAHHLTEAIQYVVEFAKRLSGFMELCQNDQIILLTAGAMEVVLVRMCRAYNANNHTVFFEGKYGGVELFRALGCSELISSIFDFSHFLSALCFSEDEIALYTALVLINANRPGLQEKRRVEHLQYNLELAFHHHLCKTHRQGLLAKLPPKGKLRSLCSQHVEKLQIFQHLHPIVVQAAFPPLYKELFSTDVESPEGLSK
In short: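 Readout is intracellular luciferase after 2-day compound exposure (8 concentrations, 0.1% DMSO) in CHO cells expressing GAL4 fused to mouse RORγ LBD residues Ile251–Lys516 plus pG5-Luc reporter. EC50 fitted from %-of-control; points showing resazurin-detected cytotoxicity dropped.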

human RORγ = target: T2, human RORγ (Homo sapiens, UniProt P51449); test: Luciferase reporter gene assay of inhibitory effect against RORγ transcriptional activity (GAL4-hRORγ plasmid in CHO cells); format: cell-based
T2 construct: human, NM_005060.3 and from Ser253 to Lys518; expressed in transfected cells; host or cells: CHO cells (transient co-transfection with pG5-Luc reporter)
T2 sequence (P51449 253-518): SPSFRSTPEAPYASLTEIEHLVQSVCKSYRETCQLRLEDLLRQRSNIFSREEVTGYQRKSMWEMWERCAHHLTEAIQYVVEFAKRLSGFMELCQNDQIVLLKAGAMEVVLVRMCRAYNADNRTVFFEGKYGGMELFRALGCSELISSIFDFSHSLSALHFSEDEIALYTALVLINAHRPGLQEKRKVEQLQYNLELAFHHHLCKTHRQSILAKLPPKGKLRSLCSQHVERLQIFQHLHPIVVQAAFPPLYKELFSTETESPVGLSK

| SMILES | EC50 (mouse RORγ; read-out: LUC EC50 mRORg) [µM] | EC50 (human RORγ; read-out: LUC EC50 hRORg) [µM] | EC50 (mouse RORγ; read-out: LUC EC50 (μM) mRORg) [µM] | EC50 (human RORγ; read-out: LUC EC50 (μM) hRORg) [µM] |
| --- | --- | --- | --- | --- |
| CC(=O)N1C[C@@H](C(=O)Nc2ccc(C)cc2C)[C@H](c2nnc(-c3cc(CC(C)C)no3)n2C2CC2)C1 [Example F-507] | > 3 | > 3 |  |  |
| Cc1cccc(O)c1NC(=O)CCc1nnc(CCC(C)C)n1C1CC1 [Example F-104] |  |  | > 3 | > 3 |
| Cc1ccc(NC(=O)CC(c2nnc([C@H]3C[C@@H](CC(C)C)C3)n2C2CC2)C(F)(F)CO)c(C)c1 (mixture of isomers) [Example F-617] | < 3 | < 3 |  |  |
| COc1cc(C)ccc1CNC(=O)CCc1nnc(CCC2CCC(F)(F)CC2)n1C1CC1 [Example F-257] |  |  | < 3 | < 3 |
| CC(C)CCc1nnc(CCC(=O)Nc2ccccc2C(C)C)n1C1CC1 [Example F-75] |  |  | > 3 | > 3 |
| Cc1ccc(NC(=O)CC(c2nnc([C@H]3C[C@@H](CC(C)C)C3)n2C2CC2)C2CN(C(=O)OCc3ccccc3)C2)c(C)c1 (mixture of isomers) [Example F-459] |  |  | < 3 | < 3 |
| Cc1cc(Cl)ccc1NC(=O)C[C@H](CCO)c1nnc(C2CC3(CCC(F)(F)CC3)C2)n1C1CC1 [Example F-624] | < 3 | < 3 |  |  |
| CCn1c(CCC(=O)NC23CC4CC(CC(C4)C2)C3)nnc1C1Cc2ccccc2C1 [Example F-24] |  |  | > 3 | > 3 |
| C=CCC(CC(=O)Nc1cccc(Cl)c1C)c1nnc(CCCC(C)C)n1C1CC1 (racemic) [Example F-197] |  |  | < 3 | < 3 |
| CC(C)(C)C[C@H]1C[C@@H](c2onc([C@@H](CCC(=O)O)CC(=O)NS(=O)(=O)C3CC3)c2C2CC2)C1 [Example F-722] | > 3 | > 3 |  |  |
| CC(=O)N1CC([C@H](CC(=O)Nc2ccc(C)cc2C)c2nnc([C@H]3C[C@@H](CC(C)C)C3)n2C2CC2)C1 [Example F-467] |  |  | > 3 | > 3 |
| Cc1c(Cl)cccc1NC(=O)CCc1nnc(CCC(=O)N(C)C)n1C1CC1 [Example F-184] |  |  | > 3 | > 3 |
| Cc1c(F)ccc(NC(=O)C[C@H](CCO)c2nnc(-c3cc(CC(C)C)on3)n2C2CC2)c1C [Example F-661] | < 3 | < 3 |  |  |
| Cc1ccc(NC(=O)CC(CN(C)C)c2nnc(CCCC(C)C)n2C2CC2)c(C)c1 (racemic) [Example F-278] |  |  | < 3 | > 3 |
| COc1cc(C)ccc1CNC(=O)[C@H]1CCCN(C)[C@@H]1c1nnc(CCC2CCCCC2)n1C1CC1 [Example F-267] |  |  | < 3 | < 3 |
| Cc1cc(F)ccc1NC(=O)C[C@H](OC(C)C)c1nnc(-c2cc(CC(C)C)on2)n1C1CC1 [Example F-576] | < 3 | < 3 |  |  |
| CCn1c(CCC(=O)Nc2ccc(C)cc2C)nnc1CCC(C)(C)C [Example F-47] |  |  | < 3 | > 3 |
| CC(=O)N1C[C@H](C(=O)Nc2ccc(C)cc2C)[C@@H](c2nnc(CCCC(C)(C)C)n2CC(F)(F)F)C1 [Example F-392] |  |  | < 3 | < 3 |
| Cc1ccc(NC(=O)[C@@H]2CC(C)(O)C[C@H]2c2nnc([C@H]3C[C@@H](CC(C)C)C3)n2C2CC2)c(C)c1 (single isomer, unassigned) [Example F-564] | < 3 | < 3 |  |  |
| CC(=O)N1CC(c2noc([C@H]3C[C@@H](CC(C)(C)C)C3)c2C2CC2)[C@@H](C(=O)Nc2ccc(C)cc2Cl)C1 (stereo partly shown) [Example F-686] | < 3 | < 3 |  |  |
| CCc1ccc(CNC(=O)CCc2nnc(CCC(C)C)n2C2CC2)cc1 [Example F-124] |  |  | > 3 | > 3 |
| CC(=O)N1C[C@H](C(=O)Nc2ccc(C)cc2C)[C@@H](c2nnc(C3CN(C(=O)CC(C)(C)C)C3)n2C2CC2)C1 (racemic) [Example F-417] |  |  | > 3 | > 3 |
| CCC(C)CCc1nnc(CCC(=O)Nc2ccc(C)cc2C)n1C1CC1 (racemic) [Example F-236] |  |  | < 3 | > 3 |
| CC(=O)N1C[C@H](C(=O)Nc2ccc(C)cc2C)[C@@H](c2nnc(CCCC(C)C)n2C2CC2)C1 [Example F-315] |  |  | < 3 | < 3 |
| CC1(C(F)(F)c2cc(-c3onc([C@@H](CCC(=O)O)CC(=O)Nc4ccc(Cl)cc4F)c3C3CC3)no2)CC1 [Example E-67] |  |  | < 3 | < 3 |
| Cc1cccc(CNC(=O)CCc2nnc(CCC(C)C)n2C2CC2)c1C [Example F-118] |  |  | > 3 | > 3 |

Source: patent US20160137639A1, “TRIAZOLE-ISOXAZOLE COMPOUND AND MEDICAL USE THEREOF” (JAPAN TOBACCO INC., priority 2012, published 2016)
